Tests used:
[1] = system: murine E^k MHC class II allele; assay: simultaneous assay, E^k allele (CH27 APC, TPc9.1 T hybridoma, THMCC82-103 or PGCC81-104); format: cell-based; conditions: Table 1, 0.075 μM THMCC82-103, supernatant 1:2
Procedure: (§1) Examples 1-4 (Tables 1-18) will be briefly considered in order to establish the concept of tolerance discussed above. These examples describe experimental results observed in the so-called “simultaneous” assay. In the simultaneous assay four principle components are cultured together for a 24 hour period. The components of this culture, which are added simultaneously, are: (a) an antigenic peptide characterized by the ability to bind specifically into the antigenic peptide binding groove of an MHC class II molecule, (b) mitomycin C-treated, MHC class II-positive antigen presenting cells (APC) bearing the MHC class II allele required for binding of the specific antigenic peptide, and presentation of the specific antigenic peptide to the antigenic peptide-specific T cell hybridoma, (c) an effector compound of the present invention, and (d) an MHC class II allele-restricted T cell hybridoma specific for the antigenic peptide and the MHC class II allele restricting its presentation. Following incubation of this primary culture, an aliquot of its supernatant is transferred into a second culture well for incubation with an interleukin-dependent lymphoblastoid cell line. The degree of stimulation of that second, indicator cell by the interleukins which had been released from the activated T cell hybridoma in the primary culture is measured by quantitating tritiated thymidine deoxyribose {[^3H]TdR} uptake into the DNA of the HT-2 indicator cells of that second culture.
(§2) In the “simultaneous assay” the four components of the assay are cultured together for a 24 h period. The components of this primary culture, added at the same time or simultaneously, are: (a) the antigenic peptide, (b) mitomycin C-treated, MHC class II-positive antigen presenting cells (APC) with the MHC class II allele required for binding of the specific antigenic peptide and its presentation to the antigenic peptide-specific T cell hybridoma, (c) an AE101 series effector peptide, and (d) MHC class II allele-restricted T cell hybridoma specific for the antigenic peptide and the MHC class II allele restricting its presentation. At the end of the incubation of this primary culture, an aliquot of its supernatant is transferred into a second culture well for incubation with an interleukin-dependent lymphoblastoid cell line. The degree of stimulation of that second, indicator cell by the interleukins which had been released from the activated T cell hybridoma in the primary culture is measured by quantitating tritiated thymidine deoxyribose {[^3H]TdR} uptake into the DNA of the HT-2 indicator cells of that second culture.
(§3) For these various assays, the following antigenic peptides were used: HEL11-25, hen egg lysozyme 11-25, AMKRHGLDNYRGYSL(A^d) (SEQ ID NO:5); HEL46-61, hen egg lysozyme 46-61, NTDGSTDYGILQINSR(Ak) (SEQ ID NO:6); HEL106-116, hen egg lysozyme 106-116, NAWVAWRNRCK (E^d) (SEQ ID NO:7); PGCC81-104, pigeon cytochrome c 81-104, […] (Ek) (SEQ ID NO:8), and THMCC82-103, tobacco hornworm moth cytochrome c 82-103, […] (Ek) (SEQ ID NO:9). AE101 series peptides were obtained from commercial sources. In general, the purity and composition of each peptide was confirmed by HPLC separation and mass spectrometry. The native protein antigens were HEL, hen egg lysozyme, and PGCC, pigeon cytochrome C. They were obtained from commercial sources.
(§4) For the experiments of these Examples, several T cell hybridomas, which are specific for certain antigenic peptides, were used. The TPc9.1 T hybridoma is specific for pigeon cytochrome C 81-104 peptide presented on the murine class II MHC allele E^k. The TPc9.1 hybridoma responds heteroclitically to tobacco hornworm moth cytochrome c 82-103 on E^k. The 3A9 T hybridoma is specific for hen egg lysozyme 46-61 on A^k. The 9.30.B2 hybridoma is specific for hen egg lysozyme 11-25 on A^d, and the G28.C9 hybridoma is specific for hen egg lysozyme 106-116 on E^d. […]

[2] = target: T1, murine E^d MHC class II allele (Mus musculus, UniProt P01904+P01915); assay: simultaneous assay, E^d allele (A20 APC, G28.C9 T hybridoma, HEL106-116; HT-2 [3H]TdR readout); format: cell-based; set-up: The A20 and CH27 B cell lymphoma lines express H-2^d and H-2^k alleles, respectively; endogenous in cells; host or cells: A20 B cell lymphoma (mitomycin C-treated or paraformaldehyde-fixed); conditions: Table 1, 0.4 μM HEL106-116, supernatant 1:4
T1 sequence (P01904 26-255): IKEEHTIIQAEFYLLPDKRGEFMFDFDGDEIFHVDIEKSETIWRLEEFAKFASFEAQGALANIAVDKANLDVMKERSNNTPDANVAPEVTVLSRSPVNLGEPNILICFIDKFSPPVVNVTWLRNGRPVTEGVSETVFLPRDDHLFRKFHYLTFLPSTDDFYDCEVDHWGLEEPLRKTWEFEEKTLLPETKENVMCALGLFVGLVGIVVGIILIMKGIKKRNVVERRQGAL
T1 sequence (P01915 27-264 limits assumed): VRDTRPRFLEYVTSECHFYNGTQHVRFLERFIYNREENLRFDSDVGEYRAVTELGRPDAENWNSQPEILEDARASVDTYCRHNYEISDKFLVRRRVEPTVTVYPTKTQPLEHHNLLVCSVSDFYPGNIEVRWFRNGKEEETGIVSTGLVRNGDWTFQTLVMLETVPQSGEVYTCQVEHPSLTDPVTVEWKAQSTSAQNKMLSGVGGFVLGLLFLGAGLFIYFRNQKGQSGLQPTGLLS
Procedure: as §1, §2, §3, §4

HLA-DR1 molecules [3] = assay: release of biotin-labeled hMBP(90-102) from HLA-DR1 without unlabeled antigenic peptide (assay I); format: binding, human; conditions: for Relative Release: Table 36, fraction of o.d. of positive control (PBS only = 1.0; negative control = 0.0)
HLA-DR1 molecules [4] = assay: release of biotin-labeled hMBP(90-102) from HLA-DR1 in the presence of unlabeled hMBP (assay II); format: binding, human
[5] = target: soluble HLA-DR1 (HLA-DR alpha truncated after Asn192 with a C-terminal nine amino acid HA epitope tail; HLA-DR1 beta truncated after Lys198), made in Baculovirus-infected insect cells (human); assay: loading ELISA: empty tethered HLA-DR1 with biotin-hMBP(90-102) 50 uM and AE peptide 64 uM, 1 h 37 C; biotin bound read by avidin-HRP
[6] = target: soluble HLA-DR1 (HLA-DR alpha truncated after Asn192 with a C-terminal nine amino acid HA epitope tail; HLA-DR1 beta truncated after Lys198), made in Baculovirus-infected insect cells (human); assay: exchange ELISA: tethered HLA-DR1 preloaded with unlabeled hMBP(90-102) 50 uM, washed; AE peptide plus biotin-hMBP(90-102) 50 uM, 1 h 37 C; biotin bound as fraction of positive control (overnight loading)
[7] = target: soluble HLA-DR1 (HLA-DR alpha truncated after Asn192 with a C-terminal nine amino acid HA epitope tail; HLA-DR1 beta truncated after Lys198), made in Baculovirus-infected insect cells (human); assay: release ELISA: soluble HLA-DR1 tethered by 12CA5 and preloaded with biotin-hMBP(90-102); AE peptide 64 uM, 1 h 37 C, no unlabeled peptide; biotin still bound read by avidin-HRP (1.0 = PBS control, 0.0 = no DR1; low value = released)
[8] = AE peptide 16 μM (second value)

## RMKLPKSAKPVSQMR [AE102]
[1]; [8]
  Times Baseline Response, E^k: 0.8
[1]; AE peptide 64 μM (first value)
  Times Baseline Response, E^k: 1.0
[2]; [8]
  Times Baseline Response, E^d: 4.2
[2]; AE peptide 64 μM (first value)
  Times Baseline Response, E^d: 13.3

## SAKPVSQMR [AE105]
[1]; [8]
  Times Baseline Response, E^k: 0.8
[1]; AE peptide 64 μM (first value)
  Times Baseline Response, E^k: 0.7
HLA-DR1 molecules [3]; AE101 series compound 64 μM
  Relative Release: 0.16
[2]; [8]
  Times Baseline Response, E^d: 1.1
[2]; AE peptide 64 μM (first value)
  Times Baseline Response, E^d: 4.5

## YRMKLPKSAK [AE108]
[1]; [8]
  Times Baseline Response, E^k: 0.9
[1]; AE peptide 64 μM (first value)
  Times Baseline Response, E^k: 1.2
HLA-DR1 molecules [3]; AE101 series compound 64 μM
  Relative Release: 1.14
HLA-DR1 molecules [3]; Table 37, AE101 series compound 1 μM, no unlabeled hMBP(90-102)
  Relative Release, Without unlabeled hMBP(90-102), 1 μM: 0.52
HLA-DR1 molecules [3]; Table 37, AE101 series compound 64 μM, no unlabeled hMBP(90-102)
  Relative Release, Without unlabeled hMBP(90-102), 64 μM: 0.31
HLA-DR1 molecules [4]; Table 37, AE101 series compound 1 μM, unlabeled hMBP(90-102) 250 μM
  Relative Release, With unlabeled hMBP(90-102), 1 μM: 0.00
HLA-DR1 molecules [4]; Table 37, AE101 series compound 64 μM, unlabeled hMBP(90-102) 250 μM
  Relative Release, With unlabeled hMBP(90-102), 64 μM: 0.14
[2]; [8]
  Times Baseline Response, E^d: 11.6
[2]; AE peptide 64 μM (first value)
  Times Baseline Response, E^d: 32.0

## YRMKLPKSAKPVSQ [AE106]
[1]; [8]
  Times Baseline Response, E^k: 0.9
[1]; AE peptide 64 μM (first value)
  Times Baseline Response, E^k: 2.0
HLA-DR1 molecules [3]; AE peptide at 125 nM, additional experiments
  release of hMBP(90-102) from HLA-DR1: completely release
HLA-DR1 molecules [3]; AE101 series compound 64 μM
  Relative Release: −0.12
[2]; [8]
  Times Baseline Response, E^d: 4.4
[2]; AE peptide 64 μM (first value)
  Times Baseline Response, E^d: 16.9

## unlabeled hMBP(90-102): human myelin basic protein (hMBP) peptide (90-102), antigenic peptide binding HLA-DR1, unlabeled (HLIRLFSRDAPGR) [reference compound]
HLA-DR1 molecules [4]; unlabeled hMBP(90-102) (250 μM) alone without AE101 series compounds
  release of biotin-labeled hMBP(90-102) (Relative Release): 0.81

## Ac-LRMKLPKPP-NH2 [AE401]
[5]
  Relative Enhancement (of biotin-hMBP(90-102) binding to empty HLA-DR1) (relative to no AE peptide = 1): 4.29
[6]
  Relative Binding (of biotin-hMBP(90-102) to HLA-DR1) (fraction of positive control o.d.): 0.45
[7]
  Relative Release (fraction of positive control o.d.): 0.16

## YRMKLPKSAKPVSQ [AE106]
[7]
  Relative Release (fraction of positive control o.d.): -0.12

## KLPKSAKPVSQMR [AE103]
[7]
  Relative Release (fraction of positive control o.d.): 0.01

## PKSAKPVSQMR [AE104]
[7]
  Relative Release (fraction of positive control o.d.): 0.02

## SAKPVSQMR [AE105]
[7]
  Fraction of biotin-hMBP still bound (fraction of positive control o.d.): 0.16

Reference: patent US6835382B2, “Ii peptide therapeutics to enhance antigen presentation” (University of Massachusetts, priority 1996, dated 2004)
